Reference: patent publication US20250388593A1 (MITSUBISHI TANABE PHARMA CORPORATION, priority 2023, published 2025)

The compounds below were run against CRBN truncate (318-426) (Homo sapiens (Human), UniProt Q96SW2) (assay: Measurement of molecular interactions using surface plasmon resonance (SPR), Biacore T200). Settings: 25° C., immobilized CRBN truncate, upper limit of measurement 200 μM.
Assay type: binding
Summary of the method: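 C-terminally Avi-tagged CRBN (318-426) captured on a streptavidin SA chip on a Biacore T200. Running buffer 10 mM HEPES pH 7.5, 150 mM NaCl, 1 mM TCEP, 0.005% Tween 20, 2% DMSO; 60 s contact, 120 s dissociation.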

Chain of CRBN truncate (318-426) (Q96SW2 318-426): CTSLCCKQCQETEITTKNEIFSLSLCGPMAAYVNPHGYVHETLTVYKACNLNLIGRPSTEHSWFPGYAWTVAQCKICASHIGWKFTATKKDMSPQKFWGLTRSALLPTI

Row | SMILES | Kd [µM]
1 | CCOC(=O)c1ccc2nc(N3CC4(CC(=O)N(C5CCC(=O)NC5=O)C4)C3)sc2c1 (stereo not drawn) [Example 59, Ethyl 2-[6-(2,6-dioxo-3-piperidyl)-7-oxo-2,6-diazaspiro [3.4]octan-2-yl]-1,3-benzothiazole-6-carboxylate] | < 50
2 | CC(C)(C)OC(=O)Nc1ccccc1-c1cn(C2CCCC(=O)NC2=O)nn1 (stereo not drawn) [Example 6, tert-Butyl N-[2-[1-(2,7-dioxoazepan-3-yl)triazol-4-yl]phenyl]carbamate] | ≥ 100
3 | Cc1sc2c(c1C)C(c1ccc(Cl)cc1)=N[C@@H](CC(=O)NCCCCCCCCOc1ccc(C#N)c(N3CCC4(CCCC(=O)NC4=O)C3)c1)c1nnc(C)n1-2 (stereo partly drawn) [Example 320, 2-[(9S)-7-(4-chlorophenyl)-4,5,13-trimethyl-3-thia-1,8,11,12-tetraazatricyclo[8.3.0.02,6]trideca-2(6),4,7,10,12-pentaen-9-yl]-N-[8-[4-cyano-3-(6,8-dioxo-2,7-diazaspiro[4.6]undecan-2-yl)phenoxy]octyl]acetamide] | < 50
4 | Cn1c(=O)n(C2CCCC(=O)NC2=O)c2cccc(C3=CCN(C(=O)OC(C)(C)C)CC3)c21 (stereo not drawn) [Example 220, tert-Butyl 4-[1-(2,7-dioxoazepan-3-yl)-3-methyl-2-oxobenzimidazol-4-yl]-3,6-dihydro-2H-pyridine-1-carboxylate] | 50 to 100
5 | COC(=O)c1cc2ncnc(N3CCC4(CCCC(=O)NC4=O)C3)c2s1 (stereo not drawn) [Example 43, Methyl 4-(6,8-dioxo-2,7-diazaspiro[4.6]undecan-2-yl)thieno[3,2-d]pyrimidine-6-carboxylate] | 50 to 100
6 | O=C1CCC(N2C(=O)CC3(CN(C(=O)c4ccccc4)C3)C2=O)C(=O)N1 (stereo not drawn) [Example 44-2, 2-Benzoyl-6-(2,6-dioxopiperidin-3-yl)-2,6-diazaspiro [3.4]octane-5,7-dione] | ≥ 100
7 | COC(=O)c1cc2c(N3CCC4(CCCC(=O)NC4=O)C3)ncnc2s1 (stereo not drawn) [Example 176, Methyl 4-(6,8-dioxo-2,7-diazaspiro[4.6]undecan-2-yl)thieno[2,3-d]pyrimidine-6-carboxylate] | < 50
8 | CC(C)(C)OC(=O)C(C)(C)N1CC2(CC(=O)N(C3CCC(=O)NC3=O)C2=O)C1 (stereo not drawn) [Example 49, tert-Butyl 2-[6-(2,6-dioxopiperidin-3-yl)-5,7-dioxo-2,6-diazaspiro[3.4]octan-2-yl]-2-methylpropanoate] | ≥ 100
9 | Cc1sc2c(c1C)C(c1ccc(Cl)cc1)=N[C@@H](CC(=O)NCCCCCCCCCCC(=O)N1CCC(c3cnc(N4CCC5(CCCC(=O)NC5=O)C4)nc3)CC1)c1nnc(C)n1-2 (stereo partly drawn) [Example 354, 2-[(9S)-7-(4-Chlorophenyl)-4,5,13-trimethyl-3-thia-1,8,11,12-tetraazatricyclo[8.3.0.02,6]trideca-2(6),4,7,10,12-pentaen-9-yl]-N-[11-[4-[2-(6,8-dioxo-2,7-diazaspiro[4.6]undecan-2-yl)pyrimidin-5-yl]piperidin-1-yl]-11-oxoundecyl]acetamide] | < 50
10 | O=C1CCCC(Oc2ccc(Br)cc2)C(=O)N1 (stereo not drawn) [Example 267, 3-(4-Bromophenoxy) azepane-2,7-dione] | ≥ 100
11 | O=C1CCCC2(CCN(c3nc4ccc([N+](=O)[O-])cc4s3)C2)C(=O)N1 (stereo not drawn) [Example 72, 2-(6-Nitro-1,3-benzothiazol-2-yl)-2,7-diazaspiro [4.6]undecane-6,8-dione] | < 50
12 | CC(=O)N1CCc2nc(N3CCC4(CCCC(=O)NC4=O)C3)ncc2C1 (stereo not drawn) [Example 178, 2-(6-Acetyl-7,8-dihydro-5H-pyrido[4,3-d]pyrimidin-2-yl)-2,7-diazaspiro[4.6]undecane-6,8-dione] | < 50
13 | CC(C)(C)OC(=O)NCCCCCCc1cccc2c(C(=O)N3CCC4(CCCC(=O)NC4=O)C3)cccc12 (stereo not drawn) [Example 161, tert-Butyl N-[6-[5-(6,8-dioxo-2,7-diazaspiro[4.6]undecane-2-carbonyl)naphthalen-1-yl]hexyl]carbamate] | 50 to 100
14 | Cc1sc2c(c1C)C(c1ccc(Cl)cc1)=N[C@@H](CC(=O)NCCCCCCCCN1CC3(CC(=O)N(C4CCC(=O)NC4=O)C3=O)C1)c1nnc(C)n1-2 (stereo partly drawn) [Example 309, 2-[(9S)-7-(4-chlorophenyl)-4,5,13-trimethyl-3-thia-1,8,11,12-tetraazatricyclo[8.3.0.02,6]trideca-2(6),4,7,10,12-pentaen-9-yl]-N-[8-[6-(2,6-dioxopiperidin-3-yl)-5,7-dioxo-2,6-diazaspiro[3.4]octan-2-yl]octyl]acetamide] | ≥ 100
15 | CC(C)(C)OC(=O)c1ccc(N2CCC3(CCCC(=O)NC3=O)CC2=O)nc1 (stereo not drawn) [Example 108, tert-Butyl 6-(4,7,9-trioxo-3,8-diazaspiro [5.6]dodecan-3-yl) pyridine-3-carboxylate] | 50 to 100
16 | O=C1CCCC(n2cc(CCCCCCCC(=O)OCc3ccccc3)nn2)C(=O)N1 (stereo not drawn) [Example 148, Benzyl 8-[1-(2,7-dioxoazepan-3-yl)triazol-4-yl]octanoate] | 50 to 100
17 | CC(C)(C)OC(=O)c1ccc(OC2CCCC(=O)NC2=O)nc1 (stereo not drawn) [Example 268, tert-Butyl 6-(2,7-dioxoazepan-3-yl) oxypyridine-3-carboxylate] | ≥ 100
18 | COc1cccc2nn(C3CCCC(=O)NC3=O)nc12 (stereo not drawn) [Example 256, 3-(4-Methoxybenzotriazol-2-yl)azepane-2,7-dione] | ≥ 100
19 | Cc1sc2c(c1C)C(c1ccc(Cl)cc1)=N[C@@H](CC(=O)NCCCCCCCCNC(=O)CCc1ccc3c(N4CCCC(=O)NC4=O)nn(C)c3c1)c1nnc(C)n1-2 [Example 346, N-[8-[[2-[(9S)-7-(4-chlorophenyl)-4,5,13-trimethyl-3-thia-1,8,11,12-tetraazatricyclo[8.3.0.02,6]trideca-2(6),4,7,10,12-pentaen-9-yl]acetyl]amino]octyl]-3-[3-(2,4-dioxo-1,3-diazepan-1-yl)-1-methyl-indazol-6-yl]propanamide] | < 50
20 | Cc1sc2c(c1C)C(c1ccc(Cl)cc1)=N[C@@H](CC(=O)NCCCCCCCCn1ccc3c(N4CCC5(CCCC(=O)NC5=O)C4)ncnc31)c1nnc(C)n1-2 (stereo partly drawn) [Example 319, 2-[(9S)-7-(4-chlorophenyl)-4,5,13-trimethyl-3-thia-1,8,11,12-tetraazatricyclo[8.3.0.02,6]trideca-2(6),4,7,10,12-pentaen-9-yl]-N-[8-[4-(6,8-dioxo-2,7-diazaspiro[4.6]undecan-2-yl)pyrrolo[2,3-d]pyrimidin-7-yl]octyl]acetamide] | < 50
21 | Cc1sc2c(c1C)C(c1ccc(Cl)cc1)=N[C@@H](CC(=O)NCCCCCOc1ccc3nc(N4CCC5(CCCC(=O)NC5=O)C4)sc3c1)c1nnc(C)n1-2 (stereo partly drawn) [Example 322, 2-[(9S)-7-(4-chlorophenyl)-4,5,13-trimethyl-3-thia-1,8,11,12-tetraazatricyclo[8.3.0.02,6]trideca-2(6),4,7,10,12-pentaen-9-yl]-N-[5-[[2-(6,8-dioxo-2,7-diazaspiro[4.6]undecan-2-yl)-1,3-benzothiazol-6-yl]oxy]pentyl]acetamide] | < 50
22 | O=C1CCC(N2C(=O)CC3(CN(c4ccc([N+](=O)[O-])cc4)C3)C2=O)C(=O)N1 (stereo not drawn) [Example 232, 6-(2,6-Dioxopiperidin-3-yl)-2-(4-nitrophenyl)-2,6-diazaspiro[3.4]octane-5,7-dione] | 50 to 100
23 | CC(C)(C)OC(=O)NCCOCCOCCn1c(=O)n(C2CCCC(=O)NC2=O)c2ccccc21 (stereo not drawn) [Example 199, tert-Butyl N-[2-[2-[2-[3-(2,7-dioxoazepan-3-yl)-2-oxobenzimidazol-1-yl]ethoxy]ethoxy]ethyl]carbamate] | ≥ 100

More lines, now with the values ahead:

Row | Kd [µM] | SMILES
24 | ≥ 100 | O=C1CCCN(c2ccc3ncccc3c2)C(=O)N1 [Example 117, 1-Quinolin-6-yl-1,3-diazepane-2,4-dione]
25 | ≥ 100 | CC(=O)Nc1cccc(C2CCCC(=O)NC2=O)c1 (stereo not drawn) [Example 71, N-[3-(2,7-Dioxoazepan-3-yl)phenyl]acetamide]
26 | < 50 | O=C1CCCC2(CCN(c3ccc([N+](=O)[O-])cc3Cl)C2)C(=O)N1 (stereo not drawn) [Example 84, 2-(2-Chloro-4-nitrophenyl)-2,7-diazaspiro[4.6]undecane-6,8-dione]
27 | 50 to 100 | Cn1c(=O)n([C@@H]2CCCC(=O)NC2=O)c2cccc(I)c21 (single isomer, unassigned) [Example 211, 3-(4-Iodo-3-methyl-2-oxobenzimidazol-1-yl) azepane-2,7-dione]
28 | < 50 | CC(C)(C)OC(=O)c1ccc(N2CC[C@]3(CCCC(=O)NC3=O)CC2=O)cc1 [Example 223, tert-Butyl 4-(4,7,9-trioxo-3,8-diazaspiro [5.6]dodecan-3-yl) benzoate]
29 | ≥ 100 | O=C1CCCC2(CCCN(C(=O)c3ccccc3)C2)C(=O)N1 (stereo not drawn) [Example 104, 2-Benzoyl-2,8-diazaspiro [5.6]dodecane-7,9-dione]
30 | ≥ 100 | CC(=O)Nc1cccc(C2(F)CCCC(=O)NC2=O)c1 (stereo not drawn) [Example 245, N-[3-(3-Fluoro-2,7-dioxoazepan-3-yl)phenyl]acetamide]
31 | ≥ 100 | O=C1CCCC2(CCN(C(=O)c3cnn4ccccc34)C2)C(=O)N1 (stereo not drawn) [Example 153, 2-(Pyrazolo[1,5-a]pyridine-3-carbonyl)-2,7-diazaspiro[4.6]undecane-6,8-dione]
32 | ≥ 100 | O=C1COCC2(CCCN(C(=O)c3ccccc3)C2)C(=O)N1 (stereo not drawn) [Example 12-2, 2-Benzoyl-8-oxa-2,11-diazaspiro[5.6]dodecane-10,12-dione]
33 | ≥ 100 | CC(=O)Nc1ccc(N(C)C2CCCC(=O)NC2=O)cc1 (stereo not drawn) [Example 121, N-[4-[(2,7-Dioxoazepan-3-yl)-methyl-amino]phenyl]acetamide]
34 | < 50 | N#Cc1ccc(N2CCC3(CCCC(=O)NC3=O)C2)cc1 (stereo not drawn) [Example 179, 4-(6,8-Dioxo-2,7-diazaspiro[4.6]undecan-2-yl)benzonitrile]
35 | ≥ 100 | COC(=O)c1cccc(CN2CCC3(CCCC(=O)NC3=O)C2)c1 (stereo not drawn) [Example 33, Methyl 3-[(6,8-dioxo-2,7-diazaspiro[4.6]undecan-2-yl)methyl]benzoate]
36 | ≥ 100 | CC(C)(C)OC(=O)c1ccc(N2CCC3(CCCC(=O)NC3=O)C2=O)nc1 (stereo not drawn) [Example 90-2, tert-Butyl 6-(1,9,11-trioxo-2,10-diazaspiro [4.6]undecan-2-yl) pyridine-3-carboxylate]
